Series [1] relates to U-46619-induced pulmonary vasoconstriction. The series can be described thus: CO inhaled alone or in combination with BAY 41-2272 during U-46619-induced pulmonary vasoconstriction. The class given is in vivo. An excerpt: Systemic hemodynamics, lung gas exchange, and transpulmonary cGMP release were also unchanged by CO inhalation. Arterial concentrations of carboxyhemoglobin gradually rose from 1.0±0.2% to 4.7±0.4% (P<0.01) and from 1.4±0.1% to 5.2±0.2% (P<0.01), respectively, after breathing 500 ppm CO alone or in combination with BAY 41-2272.

The subject of another series is awake lambs. In words: U-46619-induced pulmonary hypertension in awake lambs: hemodynamics, gas exchange, cGMP release. It is filed as in vivo. Here is the method: In awake lambs instrumented with vascular catheters and a tracheostomy tube, the thromboxane analog U-46619 was infused intravenously to increase mean pulmonary arterial pressure (PAP) to 35 mm Hg. After a stabilization period, seven animals received an intravenous infusion of BAY 41-2272 (Alexis Biochemicals, Lausen, Switzerland) at 0.03, 0.1, and 0.3 mg·kg^−1·h^−1 administered for 30 minutes each. In another eight animals, inhaled NO (2, 10, and 20 ppm) was administered in random order for 10 minutes each followed by 15 minute NO-free periods. An intravenous infusion of BAY 41-2272 (0.1 mg·kg^−1·h^−1) was then started. After increasing the infusion of U-46619 to maintain PAP at 35 mmHg, NO was inhaled as before BAY 41-2272. In an additional eight lambs, which received an intravenous infusion of the NO synthase inhibitor, L-NAME (25 mg/kg+5 mg·kg^−1·h^−1), together with U-46619, NO was inhaled before and during the infusion of BAY 41-2272.
Data were analyzed using repeated measures ANOVA followed by Dunnett adjustment. A p<0.05 was considered statistically significant.

The subject of series [2] is mouse model of pulmonary hypertension. In words: Mouse model of pulmonary hypertension (U46619): pulmonary and systemic arterial pressures. It is filed as in vivo, mice. Here is the method: A mouse model of pulmonary hypertension was used to examine the combined effects of YC-1 and inhaled NO. Three mice (average weight 25 g) were anesthetized, their chest opened, catheters were placed in the carotid and pulmonary arteries, and pulmonary and systemic arterial pressures were recorded (FIG. 4). U46619, a thromboxane analogue was administered intravenously to induce pulmonary vasoconstriction. NO (4 parts per million) was added to the inspired gas, and pulmonary vasodilation was measured. Thereafter, NO inhalation was discontinued, and the duration of the pulmonary vasodilator effect was measured.
YC-1 was administered as boluses over one minute (10, 50 and 100 ug), and both pulmonary artery pressure and systemic blood pressure were measured. Thereafter, YC-1 was administered as an infusion (5 ug/min), and the rate of U46619 infusion was increased (2- to 3-fold) to re-establish pulmonary vasoconstriction. The pulmonary vasodilator response to breathing 4 ppm NO was measured, and duration of pulmonary vasodilation after discontinuing NO was assessed.

[3] abbreviates: BAY 41-2272 0.1 mg·kg^−1·h^−1, L-NAME 25 mg/kg+5 mg·kg^−1·h^−1 iv, n=8.
The mark [4] stands for this setting: BAY 41-2272 0.1 mg·kg^−1·h^−1 iv with inhaled NO, P<0.05.
The mark [5] stands for this setting: BAY 41-2272 infusion with NO inhaled at 10 and 20 ppm.
Setting [6] is: BAY 41-2272 infusion with NO inhaled at 10 and 20 ppm, P<0.05 vs. baseline PH.
The mark [7] stands for this setting: BAY 41-2272 iv infusion 0.03, 0.1, 0.3 mg·kg^−1·h^−1, 30 min each, n=7.
The mark [8] stands for this setting: during BAY 41-2272 infusion, inhalation of 10 and 20 ppm NO, P<0.01 vs. baseline PH.
The mark [9] stands for this setting: inhaled NO alone at 20 ppm, P<0.05.
The mark [10] stands for this setting: YC-1 boluses over one minute (10, 50 and 100 ug).

The structures appear in SMILES notation.

In the case of `Nc1nc(-c2nn(Cc3ccccc3F)c3ncccc23)ncc1C1CC1` [BAY 41-2272, 3-(4-amino-5-cyclopropylpyrimidine-2-yl)-1-(2-fluorobenzyl)-1H-pyrazolo[3,4-b]pyridine], the “plasma levels of BAY 41-2272” value in series [1] (in vivo) is given as “remained stable”. Also, the “vasodilator effect on U-46619-induced pulmonary vasoconstriction” value in series [1] (inhalation of CO following administration of / in combination with BAY 41-2272) is “no vasodilator effect”. Also, in the series with awake lambs (setting [3]), the “pulmonary vasodilation induced by BAY 41-2272 in presence of L-NAME” value was “but not pulmonary vasodilation” and the “systemic vasodilation induced by BAY 41-2272 in presence of L-NAME” value is “abolished”. Besides, the “reduction of PAP induced by inhaled NO” value in the series on awake lambs (BAY 41-2272 0.1 mg·kg^−1·h^−1 iv with inhaled NO 2, 10, 20 ppm, P<0.05) was “markedly enhanced”. Further, in the series with awake lambs (setting [4]), the “reduction of PVRI induced by inhaled NO” value is listed as “markedly enhanced” and the “reduction of PVRI/SVRI induced by inhaled NO” value is recorded as “markedly enhanced”. Further, in the series on awake lambs (setting [5]), the HR entry is “remained unchanged”, the MAP result is “remained unchanged” and the “central venous pressure (CVP)” value was “remained unchanged”. Further, in the series on awake lambs (BAY 41-2272 infusion with NO inhaled at 10 and 20 ppm vs inhaled NO alone, P<0.05), the “reduction of right ventricle stroke work index (RVSWI)” value is “to a greater extent than did inhaled NO alone”. Also, in the series with awake lambs (setting [6]), the “cardiac index (CI)” value is “increments”, the “pulmonary capillary wedge pressure (PCWP)” value was “minor reductions”, the “stroke volume index (SVI)” value is listed as “increments” and the “systemic vascular resistance index (SVRI)” value is reported as “minor reductions”. Further, in the series with awake lambs (setting [7]), the “mean PAP (percent change from pre-treatment pulmonary hypertension value)” value was “dose-dependent reductions” and the “pulmonary vascular resistance index (PVRI) (percent change from pre-treatment pulmonary hypertension value)” value is “dose-dependent reductions”. Moreover, the “reductions in mean PAP and PVRI compared with corresponding reductions in MAP and SVRI” value with awake lambs (BAY 41-2272 iv infusion 0.03-0.3 mg·kg^−1·h^−1, p<0.05) is on record as “significantly greater”. Also, the “increase of transpulmonary cGMP release” value in the series with awake lambs (co-administration of BAY 41-2272 and inhaled NO vs inhaled NO alone, P<0.05) is given as “to a greater extent than did inhaled NO alone”. The “persistence of pulmonary vasodilation (T1/2) after NO was discontinued” value in the series with awake lambs (during BAY 41-2272 infusion vs before, P<0.05) is “greater than that before the infusion”. Further, in the series on awake lambs (setting [8]), the “P(A-a)O2” value is reported as “reduced”, the PaO2/FiO2 entry is on record as “augmented” and the Qs/Qt entry is “reduced”. In the series on awake lambs (during the period of NO administrations, iv infusion 0.1 mg·kg^−1·h^−1), the “plasma BAY 41-2272 concentrations” value is “remained at a stable level”.

In the case of `[C-]#[O+]` [CO, carbon monoxide], in series [1] (CO inhalation), the lung gas exchange result is listed as “unchanged”, the systemic hemodynamics result is given as “unchanged” and the “transpulmonary cGMP release” value is recorded as “unchanged”. The “vasodilator effect on U-46619-induced pulmonary vasoconstriction” value in series [1] (inhalation of CO alone) is “no vasodilator effect”.

In the case of `[N]=O` [NO, Nitric oxide], in the series with awake lambs (inhaled NO alone), the “T1/2 of return of PAP to baseline pulmonary hypertension after NO was discontinued” value was below 1 min and the arterial methemoglobin concentrations entry is given as “no significant changes”. In the series on awake lambs (inhaled NO alone 2, 10, 20 ppm, 10 min each), the pulmonary vasodilation result is “dose-dependent, selective pulmonary vasodilation”. Besides, the “transpulmonary cGMP release” value with awake lambs (inhaled NO alone 10 and 20 ppm, P<0.01) is listed as “increased”. Besides, in the series on awake lambs (setting [9]), the “P(A-a)O2” value is given as “reduced”, the PaO2/FiO2 result is recorded as “increased” and the Qs/Qt result is reported as “reduced”.

Regarding `OCc1ccc(-c2nn(Cc3ccccc3)c3ccccc23)o1` [YC-1, 3-(5′-hydroxymethyl-2′-furyl)-1-benzylindazole], the “pulmonary vasodilator response to breathing NO” value in series [2] (4 ppm NO during YC-1 infusion (5 ug/min) vs NO alone) was “greater pulmonary vasodilator response than did breathing NO alone”. The “systemic vasodilation on addition of NO inhalation to YC-1” value in series [2] (4 ppm NO, YC-1 infusion 5 ug/min) is “did not cause systemic vasodilation”. Besides, in series [2] (setting [10]), the “pulmonary vasodilation (pulmonary artery pressure)” value is “induced both pulmonary and systemic vasodilation”; the “systemic vasodilation (systemic blood pressure)” value is “induced both pulmonary and systemic vasodilation”. Besides, the “duration of pulmonary vasodilation after discontinuing NO inhalation” value in series [2] (during YC-1 infusion (5 ug/min) vs before, P<0.01) is listed as “greater during an infusion of YC-1 than before”.

Source of the values: patent US20050255178A1, “Enhancing the effectiveness of an inhaled therapeutic gas” (priority 2004, published 2005).
